These results are taken from patent US9938273B2 (Plexxikon Inc., priority 2015, dated 2018).

The test system of assay [1] is MOLM-14 D835Y cells, FLT3 ITD and FLT3 D835Y. Description: Cell proliferation assay (CellTiter-Glo), MOLM-14 D835Y. It is filed as cell-based. To be noted: Homo sapiens, 72 h, 3d-Growth, GMean. The gist of the method: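 MOLM-14 AML cells (endogenous FLT3 ITD, AC220-selected D835Y or F691L variants) or murine Ba/F3 expressing full-length FLT3 ITD/D835Y, without IL-3 for FLT3 dependence, 1×10^4 cells/well. Eight-point 1:3 series from 1 μM final, 0.2% DMSO, 3 days at 37 °C. CellTiter-Glo luminescence (ATP) gave IC50.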

In a further assay the target is T1, FLT3-D835Y (Homo sapiens, UniProt P36888, D835Y).
T1 construct: purchased Invitrogen PV3967
T1 sequence (P36888 27-993 D835Y): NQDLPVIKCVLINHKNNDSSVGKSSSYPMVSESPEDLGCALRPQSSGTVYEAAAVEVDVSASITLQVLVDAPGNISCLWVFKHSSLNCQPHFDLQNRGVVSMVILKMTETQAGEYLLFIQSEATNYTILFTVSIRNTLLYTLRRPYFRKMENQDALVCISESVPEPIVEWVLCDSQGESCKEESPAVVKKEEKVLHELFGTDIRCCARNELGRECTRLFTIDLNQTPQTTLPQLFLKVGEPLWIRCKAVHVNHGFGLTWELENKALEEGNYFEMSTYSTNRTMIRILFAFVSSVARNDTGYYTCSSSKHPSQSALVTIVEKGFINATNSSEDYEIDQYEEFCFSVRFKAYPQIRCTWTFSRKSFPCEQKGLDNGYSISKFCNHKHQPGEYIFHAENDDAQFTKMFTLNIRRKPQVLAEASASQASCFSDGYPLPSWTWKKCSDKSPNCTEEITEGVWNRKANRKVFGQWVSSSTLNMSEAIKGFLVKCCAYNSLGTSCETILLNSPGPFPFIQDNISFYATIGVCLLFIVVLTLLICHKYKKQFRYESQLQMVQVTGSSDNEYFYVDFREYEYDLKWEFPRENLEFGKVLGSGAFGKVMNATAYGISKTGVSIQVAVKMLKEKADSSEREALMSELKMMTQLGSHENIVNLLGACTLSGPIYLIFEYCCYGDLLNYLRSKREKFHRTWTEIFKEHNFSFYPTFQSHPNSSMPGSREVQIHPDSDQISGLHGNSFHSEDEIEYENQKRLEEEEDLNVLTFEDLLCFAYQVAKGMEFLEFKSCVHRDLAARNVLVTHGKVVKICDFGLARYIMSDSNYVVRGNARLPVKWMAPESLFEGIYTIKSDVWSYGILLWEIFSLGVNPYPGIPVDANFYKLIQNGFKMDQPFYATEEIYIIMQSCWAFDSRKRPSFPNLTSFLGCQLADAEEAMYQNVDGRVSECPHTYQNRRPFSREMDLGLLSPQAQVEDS
Description: AlphaScreen kinase assay with recombinant enzyme, FLT3-D835Y. It is filed as biochemical. To be noted: 8pt, GMean. The gist of the method: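 Compounds in DMSO added to enzyme plus biotin-poly(Glu4-Tyr) (30 nM) in assay buffer, then ATP added. Streptavidin donor beads added (20 min, RT), then PY20 acceptor beads (60 min, RT), both at 10 μg/mL final in stop/detection buffer. IC50 conditions: 10 μM FLT3-D835Y/ITD, 100 μM c-KIT.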
On the technique in general: Alpha assays give light when donor and acceptor beads are brought close together.

By IC50 is commonly meant the concentration that gives 50% inhibition. Take `CC(C)(NC(=O)c1cccc(-c2cnc3[nH]c(-c4cnn(C5CCNCC5)c4)cc3c2)n1)C(N)=O` [Compound P-0200, N-(2-amino-1,1-dimethyl-2-oxo-ethyl)-6-[2-[1-(4-piperidyl)pyrazol-4-yl]-1H-pyrrolo[2,3-b]pyridin-5-yl]pyridine-2-carboxamide]: the IC50 (in assay [1]; on FLT3-D835Y) was 0.0001 to 10 µM each time.

As for `O=S(=O)(NC1CNC1)c1cccc(-c2cnc3[nH]c(-c4ccccc4)cc3c2)n1` [Compound P-0071, N-(azetidin-3-yl)-6-(2-phenyl-1H-pyrrolo[2,3-b]pyridin-5-yl)pyridine-2-sulfonamide], the IC50 (in assay [1]; at FLT3-D835Y) was 0.0001 to 10 µM each time.

For `NC1CCC(NC(=O)c2cccc(-c3cnc4[nH]c(-c5ccccc5)cc4c3)n2)CC1` (stereo not drawn) [Compound P-0018, N-(4-aminocyclohexyl)-6-(2-phenyl-1H-pyrrolo[2,3-b]pyridin-5-yl)pyridine-2-carboxamide], the IC50 (in assay [1]; on FLT3-D835Y) was 0.0001 to 10 µM in each case.

For `CC(C)(C#N)NC(=O)c1cccc(-c2cnc3[nH]c(-c4cnc(C(F)(F)F)nc4)cc3c2)n1` [Compound P-0204, N-(1-cyano-1-methyl-ethyl)-6-[2-[2-(trifluoromethyl)pyrimidin-5-yl]-1H-pyrrolo[2,3-b]pyridin-5-yl]pyridine-2-carboxamide], the IC50 (in assay [1]; at FLT3-D835Y) was 0.0001 to 10 µM in each case.

Take `CC(C)(C#N)NC(=O)c1cccc(-c2cnc3[nH]c(-c4ccc(C5(C#N)CC5)cc4)cc3c2)n1` [Compound P-0194, 6-[2-[4-(1-cyanocyclopropyl)phenyl]-1H-pyrrolo[2,3-b]pyridin-5-yl]-N-(1-cyano-1-methyl-ethyl)pyridine-2-carboxamide]: the IC50 (in assay [1]; on FLT3-D835Y) was 0.0001 to 10 µM throughout.

Consider `CCOc1ncc(-c2cc3cc(-c4cccc(C(=O)NC(C)(C)C#N)n4)cnc3[nH]2)cn1` [Compound P-0203, N-(1-cyano-1-methyl-ethyl)-6-[2-(2-ethoxypyrimidin-5-yl)-1H-pyrrolo[2,3-b]pyridin-5-yl]pyridine-2-carboxamide], for which the IC50 (in assay [1]; at FLT3-D835Y) was 0.0001 to 10 µM throughout.
